Assay [1] concerns the target human PDE2A1 (Homo sapiens (Human), UniProt O00408). In words: PDE2 fluorescence polarization (IMAP FP) inhibition assay, human enzyme. The format is biochemical. Here is the method:
(§1) The activity of the compounds in accordance with the present invention as PDE2 inhibitors may be readily determined using a fluorescence polarization (FP) methodology (Huang, W., et al., J. Biomol Screen, 2002, 7: 215).
Selectivity for PDE2, as compared to other PDE families, was assessed using the IMAPR technology. Human PDE10A2 enzyme was prepared from cytosolic fractions of transiently transfected HEK cells. All other PDE's were GST Tag human enzyme expressed in insect cells and were obtained from BPS Bioscience (San Diego, Calif.): PDE1A (Cat#60010), human PDE2A1(Cat#60020), PDE3A (Cat#60030), PDE4A1A (Cat#60040), PDE5A1 (Cat#60050), PDE6C (Cat#60060), PDE7A (Cat#60070), PDE8A1 (Cat#60080), PDE9A2 (Cat#60090), PDE11A4 (Cat#60110).
Assays for PDE 1 through 11 were performed in parallel at room temperature in 384-well microtiter plates with an incubation volume of 20.2 μL. Solutions of test compounds were prepared in DMSO and serially diluted with DMSO to yield 30 μL of each of ten solutions differing by 3-fold in concentration, at 32 serial dilutions per plate. […] A Labcyte POD 810 (Labcyte, Sunnyvale, Calif.) was used to dispense 200 nL from each well of the titration plate to make eleven copies of the assay plate for each titration, one copy for each PDE enzyme. A solution of each enzyme (dilution from aliquots, sufficient to produce 20% substrate conversion) and a separate solution of FAM-labeled cAMP or FAM-labeled cGMP from Molecular Devices (Sunnyvale, Calif., product # R7506 or cGMP#R7508), at a final concentration of 50 nM were made in the assay buffer (10 mM Tris HCl, pH 7.2, 10 mM MgCl2, 0.05% NaN3 0.01% Tween-20, and 1 mM DTT). Note that the substrate for PDE2 is 50 nM FAM cAMP containing 1000 nM of cGMP. The enzyme and the substrate were then added to the assay plates in two consecutive additions of 10 μL and then shaken to mix. The reaction was allowed to proceed at room temperature for 60 minutes. A binding solution was then made from the kit components, comprised of 80% Solution A, 20% Solution B and binding reagent at a volume of 1/600 the total binding solution. The enzymatic reaction was stopped by addition of 60 μL of the binding solution to each well of the assay plate. The plates were sealed and shaken for 10 seconds. The plates were incubated at room temperature for one hour, then the parallel and perpendicular fluorescence was measured using a Tecan Genios Pro plate reader (Tecan, Switzerland). The apparent inhibition constants for the compounds against all 11 PDE's was determined from the parallel and perpendicular fluorescent readings as described for PDE10 FP assay using the following apparent KM values for each enzyme and substrate combination: PDE1A (FAM cGMP) 70 nM, human PDE2A1 (FAM cAMP) 10,000 nM, PDE3A (FAM cAMP) 50 nM, PDE4A1A (FAM cAMP) 1500 nM, PDE5A1 (FAM cGMP) 400 nM, PDE6C (FAM cGMP) 700 nM, PDE7A (FAM cAMP) 150 nM, PDE8A1 (FAM cAMP) 50 nM, PDE9A2 (FAM cGMP) 60 nM, […] (FAM cAMP) 150 nM, PDE11A4 (FAM cAMP) 1000 nM. The intrinsic PDE2 inhibitory activity of a compound which may be used in accordance with the present invention may be determined by these assays. […]
Background: Polarisation of emitted light reports the rotation of a fluorescent probe.

Assay [2] has as its target Rhesus PDE2A3 (Macaca mulatta, UniProt B3VTJ2). In words: PDE2 fluorescence polarization (IMAP FP) inhibition assay, rhesus enzyme. The format is biochemical, rhesus macaque. The method, then:
as §1
In a typical experiment the PDE2 inhibitory activity of the compounds of the present invention was determined in accordance with the following experimental method. Rhesus PDE2A3 was amplified from rhesus macaque brain cDNA (Biochain Institute, Hayward, Calif.) using primers based on human PDE2A sequence (accession NM_002599.3) where the forward primer containing a Kozak consensus was 5′-[…]-3′ and the reverse primer was 5′-[…]-3′. Amplification with Easy-A High-Fidelity PCR cloning enzyme (Stratagene, La Jolla, Calif.) was 95° C. for 2 minutes followed by thirty three cycles of 95° C. for 40 seconds, 52° C. for 30 seconds, and 72° C. for 2 minutes 48 seconds. Final extension was 72° C. for 7 minutes. The PCR product was TA cloned into pcDNA3.3-TOPO (Invitrogen, Carlsbad, Calif.) according to standard protocol. A consensus sequence was developed from multiple clones and then deposited into GenBank (EU812167). AD293 cells (Stratagene, La Jolla, Calif.) with 70-80% confluency were transiently transfected with rhesus PDE2A3/pcDNA3.3-TOPO using Lipofectamine 2000 according to manufacturer specifications (Invitrogen, Carlsbad, Calif.). Cells were harvested 48 hours post-transfection and lysed by sonication (setting 3, 10×5 sec pulses) in a buffer containing 20 mM HEPES pH 7.4, 1 mM EDTA and Complete Protease Inhibitor Cocktail Tablets (Roche, Indianapolis, Ind.). Lysate was collected by centrifugation at 75,000×g for 20 minutes at 4° C. and supernatant utilized for evaluation of PDE2 activity. The fluorescence polarization assay for cyclic nucleotide phosphodiesterases was performed using an IMAP® FP kit supplied by Molecular Devices, Sunnyvale, Calif. (product # R8139). […] Assays were performed at room temperature in 384-well microtiter plates with an incubation volume of 20.2 μL. Solutions of test compounds were prepared in DMSO and serially diluted with DMSO to yield 8 μL of each of 10 solutions differing by 3-fold in concentration, at 32 serial dilutions per plate. […] 0% of inhibition is determined by using DMSO (1% final concentrations).
A Labcyte Echo 555 (Labcyte, Sunnyvale, Calif.) is used to dispense 200 nL from each well of the titration plate to the 384 well assay plate. Ten microliters of a solution of enzyme (1/2000 final dilution from aliquots; sufficient to produce 20% substrate conversion) was added to the assay plate. Next 10 uL of a separate solution of the substrate FAM-labeled cAMP (50 nM final concentration product # R7506 from Molecular Devices) and the activator cGMP (1 uM final concentration), prepared in the assay buffer (10 mM Tris HCl, pH 7.2, 10 mM MgCl2, 0.05% NaN3 0.01% Tween-20, and 1 mM DTT) was added to the assay plate and shaken to mix. The reaction is allowed to proceed at room temperature for 60 minutes. A binding solution is then made from the kit components, comprised of 80% Solution A, 20% Solution B and binding reagent at a volume of 1/600 the total binding solution. The enzymatic reaction is stopped by addition of 60 μL of the binding solution to each well of the assay plates and the plates are sealed and shaken for 30 seconds. The plate was incubated at room temperature for at least one hour prior to determining the fluorescence polarization (FP). The parallel and perpendicular fluorescence of each well of the plate was measured using a Tecan Genios Pro plate reader (Tecan, Switzerland) or Perkin Elmer EnVision™ plate reader (Waltham, Mass.). Fluorescence polarization (mP) was calculated from the parallel (S) and perpendicular (P) fluorescence of each sample well and the analogous values for the median control well, containing only substrate (So and Po), using the following equation: Polarization (mP)=1000*(S/So−P/Po)/(S/So+P/Po).

[3] abbreviates: LabB, read-out: hPDE2 Ki (nM) LabB.
The mark [4] stands for this setting: LabB, read-out: rhPDE2 Ki (nM) LabB.

The text below walks through data of patent publication US10195201B2, “Heteroaryl-pyrimidinone compounds as PDE2 inhibitors” (Merck Sharp & Dohme Corp., priority 2015, dated 2019).

Where two headings read alike, the source gives them in different places.

Rhesus PDE2A3, sequence (B3VTJ2 1-941): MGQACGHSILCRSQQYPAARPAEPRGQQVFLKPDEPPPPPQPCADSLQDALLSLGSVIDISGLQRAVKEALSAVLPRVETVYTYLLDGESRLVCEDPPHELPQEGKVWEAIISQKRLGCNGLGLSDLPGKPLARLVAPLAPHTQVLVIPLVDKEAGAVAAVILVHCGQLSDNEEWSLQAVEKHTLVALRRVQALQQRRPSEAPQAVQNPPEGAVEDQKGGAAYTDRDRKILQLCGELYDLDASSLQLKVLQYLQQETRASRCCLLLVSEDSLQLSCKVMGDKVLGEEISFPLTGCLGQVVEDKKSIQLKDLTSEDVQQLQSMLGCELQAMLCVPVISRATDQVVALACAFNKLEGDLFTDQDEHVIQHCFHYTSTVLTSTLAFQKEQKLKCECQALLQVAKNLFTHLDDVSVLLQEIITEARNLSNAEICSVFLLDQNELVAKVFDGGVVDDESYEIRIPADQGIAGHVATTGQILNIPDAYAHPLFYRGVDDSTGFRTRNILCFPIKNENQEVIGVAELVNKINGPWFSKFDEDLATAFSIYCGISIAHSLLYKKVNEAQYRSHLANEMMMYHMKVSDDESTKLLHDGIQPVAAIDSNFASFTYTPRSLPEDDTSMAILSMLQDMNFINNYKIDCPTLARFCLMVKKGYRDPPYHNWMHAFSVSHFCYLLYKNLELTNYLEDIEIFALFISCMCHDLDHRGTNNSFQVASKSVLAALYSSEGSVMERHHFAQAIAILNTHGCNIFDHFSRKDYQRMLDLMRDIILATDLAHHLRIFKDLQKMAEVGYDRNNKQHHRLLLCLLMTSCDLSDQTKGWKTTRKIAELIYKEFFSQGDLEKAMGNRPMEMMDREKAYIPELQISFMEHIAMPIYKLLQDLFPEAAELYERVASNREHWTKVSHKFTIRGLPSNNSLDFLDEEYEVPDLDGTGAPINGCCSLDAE
human PDE2A1, sequence (O00408 other isoform, or with tags, fused parts or gaps): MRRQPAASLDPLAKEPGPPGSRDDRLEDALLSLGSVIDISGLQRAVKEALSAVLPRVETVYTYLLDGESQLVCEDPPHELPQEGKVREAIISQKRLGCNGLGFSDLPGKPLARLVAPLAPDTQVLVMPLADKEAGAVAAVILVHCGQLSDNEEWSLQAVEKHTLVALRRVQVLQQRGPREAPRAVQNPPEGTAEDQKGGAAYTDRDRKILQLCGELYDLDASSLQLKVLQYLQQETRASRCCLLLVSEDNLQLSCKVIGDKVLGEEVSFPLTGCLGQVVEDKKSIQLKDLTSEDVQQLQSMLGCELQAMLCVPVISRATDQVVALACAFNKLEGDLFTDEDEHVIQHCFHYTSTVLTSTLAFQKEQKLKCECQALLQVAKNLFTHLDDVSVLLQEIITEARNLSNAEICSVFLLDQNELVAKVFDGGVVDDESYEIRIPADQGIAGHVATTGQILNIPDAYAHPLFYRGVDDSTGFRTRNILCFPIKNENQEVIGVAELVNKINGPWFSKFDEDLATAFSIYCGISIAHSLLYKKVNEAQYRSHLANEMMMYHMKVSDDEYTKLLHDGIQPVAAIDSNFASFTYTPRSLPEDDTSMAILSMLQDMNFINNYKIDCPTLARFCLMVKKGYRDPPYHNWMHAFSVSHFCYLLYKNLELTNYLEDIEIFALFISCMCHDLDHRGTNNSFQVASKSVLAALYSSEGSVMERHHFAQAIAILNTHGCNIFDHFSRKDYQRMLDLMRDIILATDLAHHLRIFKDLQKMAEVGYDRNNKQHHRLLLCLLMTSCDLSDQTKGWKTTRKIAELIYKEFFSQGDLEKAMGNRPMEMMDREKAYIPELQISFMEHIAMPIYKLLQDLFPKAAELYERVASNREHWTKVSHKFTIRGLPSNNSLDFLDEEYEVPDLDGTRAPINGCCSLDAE

Consider `Cc1nc(-c2nnc([C@H](C)c3ccc(C(F)(F)F)cc3F)s2)cc(=O)[nH]1` (single isomer, unassigned) [Example 4], for which the Ki in assay [1] (setting [3]) came out at 22 nM; in assay [2] (setting [4]) it was 20 nM.

As for `Cc1nc(-c2nnc([C@H](C)c3ccc(C(F)(F)F)cc3F)s2)cc(=O)[nH]1` (single isomer, unassigned) [Example 5], the results for the Ki in assay [1] (setting [3]) and in assay [2] (setting [4]) were 18 nM and 19 nM, respectively.

In the case of `Cc1nc(-c2nnc([C@H](C)c3ccc(C(F)(F)F)cc3)s2)cc(=O)[nH]1` (single isomer, unassigned) [Example 6], the Ki in assay [1] (LabA, read-out: hPDE2 Ki (nM) LabA) was 6 nM; in assay [1] (setting [3]), 12 nM; in assay [2] (LabA, read-out: rhPDE2 Ki (nM) LabA), 10 nM; in assay [2] (setting [4]), 13 nM.

Consider `Cc1nc(-c2cc(C(C)c3ccc(C(F)(F)F)cc3)ncn2)cc(=O)[nH]1` (single isomer, unassigned) [Example 32, (R)- or (S)-2-methyl-6′-(1-(4-(trifluoromethyl)phenyl)ethyl)-[4,4′-bipyrimi-din]-6(1H)-one], for which, in assay [1] (setting [3]), the Ki worked out at 64 nM.

With `Cc1nc(-c2cc(C(C)c3ccc(C(F)(F)F)cc3)ncn2)cc(=O)[nH]1` (single isomer, unassigned) [Example 33], in assay [1] (setting [3]), the Ki amounted to 20 nM.

As to `Cc1nc(-c2cc(C(C)c3ccc(OC(F)F)c(F)c3)ncn2)cc(=O)[nH]1` (single isomer, unassigned) [Example 34, (R)- or (S)-6′-(1-(4-(difluoro-methoxy)-3-fluorophenyl)ethyl)-2-methyl-[4,4′-bipyrimidin]-6(1H)-one], the Ki in assay [1] (setting [3]) amounted to 13 nM.

With `Cc1nc(-c2cc(C(C)c3ccc(OC(F)F)c(F)c3)ncn2)cc(=O)[nH]1` (single isomer, unassigned) [Example 35, (S)- or (R)-6′-(1-(4-(difluoro-methoxy)-3-fluorophenyl)ethyl)-2-methyl-[4,4′-bipyrimidin]-6(1H)-one], in assay [1] (setting [3]), the Ki is 232 nM.

`Cc1nc(-c2cc(C(C)c3ccc(C(C)(F)F)cc3)ncn2)cc(=O)[nH]1` (single isomer, unassigned) [Example 36, (R)- or (S)-6′-(1-(4-(1,1-difluoro-ethyl)phenyl)ethyl)-2-methyl-[4,4′-bipyrimidin]-6(1H)-one]: the Ki in assay [1] (setting [3]) was 20 nM.

Turning to `Cc1nc(-c2cc(C(C)c3ccc(C(C)(F)F)cc3)ncn2)cc(=O)[nH]1` (single isomer, unassigned) [Example 37, (S)- or (R)-6′-(1-(4-(1,1-difluoro-ethyl)phenyl)ethyl)-2-methyl-[4,4′-bipyrimidin]-6(1H)-one], the Ki in assay [1] (setting [3]) came out at 65 nM.

In the case of `Cc1nc(-c2cc(C(C)c3ccc(C(F)F)c(F)c3)ncn2)cc(=O)[nH]1` (single isomer, unassigned) [Example 38, (R)- or (S)-6′-(1-(4-(difluoro-methyl)-3-fluoro-phenyl)ethyl)-2-methyl-[4,4′-bipyrimidin]-6(1H)-one], the Ki in assay [1] (setting [3]) is 30 nM.

Turning to `Cc1nc(-c2cc(C(C)c3ccc(C(F)F)c(F)c3)ncn2)cc(=O)[nH]1` (single isomer, unassigned) [Example 39, (S)- or (R)-6′-(1-(4-(difluoro-methyl)-3-fluoro-phenyl)ethyl)-2-methyl-[4,4′-bipyrimidin]-6(1H)-one], in assay [1] (setting [3]), the Ki amounted to 174 nM.

On to `Cc1nc(-c2cc(C(C)c3ccc(OC(F)(F)F)c(F)c3)ncn2)cc(=O)[nH]1` (single isomer, unassigned) [Example 40, (R)- or (S)-6′-(1-(3-fluoro-4-(trifluoro-methoxy)phenyl)ethyl)-2-methyl-[4,4′-bipyrimidin]-6(1H)-one], for which the Ki in assay [1] (setting [3]) is 1.8 nM.

Consider `Cc1nc(-c2cc(C(C)c3ccc(OC(F)(F)F)c(F)c3)ncn2)cc(=O)[nH]1` (single isomer, unassigned) [Example 41, (S)- or (R)-6′-(1-(3-fluoro-4-(trifluoro-methoxy)phenyl)ethyl)-2-methyl-[4,4′-bipyrimidin]-6(1H)-one], for which the Ki in assay [1] (setting [3]) is 212 nM.

Turning to `Cc1nc(-c2cc(C(C)c3ccc(OC(F)(F)F)cc3)ncn2)cc(=O)[nH]1` (single isomer, unassigned) [Example 44, (R)- or (S)-2-methyl-6′-(1-(4-(trifluoro-methoxy)phenyl)ethyl)-[4,4′-bipyrimidin]-6(1H)-one], in assay [1] (setting [3]), the Ki is 4.1 nM.

Turning to `Cc1nc(-c2cc(C(C)c3ccc(OC(F)(F)F)cc3)ncn2)cc(=O)[nH]1` (single isomer, unassigned) [Example 45, (S)- or (R)-2-methyl-6′-(1-(4-(trifluoro-methoxy)phenyl)ethyl)-[4,4′-bipyrimidin]-6(1H)-one], the Ki in assay [1] (setting [3]) was determined as 194 nM.

Consider `Cc1nc(-c2cc([C@H](C)c3ccc(C(C)(C)O)cc3)ncn2)cc(=O)[nH]1` (single isomer, unassigned) [Example 46], for which, in assay [1] (setting [3]), the Ki is 890 nM.

In the case of `Cc1nc(-c2cc([C@H](C)c3ccc(C(C)(C)O)cc3)ncn2)cc(=O)[nH]1` (single isomer, unassigned) [Example 47], the Ki in assay [1] (setting [3]) is 1720 nM.

Broadly, the Ki is a measure of affinity in units of concentration, obtained from inhibition or displacement.
